Experimental data as given in US6713051B2, “Antiperspirant or deodorant compositions” (Unilever Home & Personal Care USA division of Conopco, Inc., priority 2001, dated 2004).

Columns and labels:
Assay type in all cases: cell-based
interleukin-6 (IL-6) = assay: Skin organotypic culture analysis: AP-induced IL-6 release into the medium; conditions: for IL-6 release (mean ± SD): 24 h, Nil 21.5, AP 57.1
Experimental: (§1) The cultures were then incubated at 37° C., 5% CO2, and 95% relative humidity (standard cell culture conditions) for 24 h. The culture medium was assayed for the pro-inflammatory cytokine interleukin-6 (IL-6) and after washing to remove the AP formulation, the viability of the culture was determined using the Thiazoyl blue (MTT) assay (Mosmann, T. J. Immunol. Methods 65, p55 (1983). IL-6 was determined using an Immunoassay (Quantikine, R&D systems).
(§2) In this Example, skin organotypic cultures (Epiderm™, MatTek, USA) were treated topically with the above-identified AP formulation and the trans-10-cis-12 conjugated linoleic acid (TC CLA) was introduced into the medium. The cultures were then incubated at 37° C., 5% CO2, and 95% relative humidity (standard cell culture conditions) for 24 h. The culture medium was assayed for the pro-inflammatory cytokine interleukin-6 (IL-6) and after washing to remove the AP formulation, the viability of the culture was determined by the method described in Example 2.
as §1, with “hours.” for “h.”, “MTT assay.” for “Thiazoyl blue (MTT) assay (Mosmann, T. J. Immunol. Methods 65, p55 (1983).”, “ELISA assay (R&D” for “Immunoassay (Quantikine, R&D”

[1] = system: skin organotypic cultures (Epiderm); assay: Viability of skin organotypic cultures (MTT assay)
Experimental: as §1, §2
as §1, with “hours.” for “h.”, “MTT assay.” for “Thiazoyl blue (MTT) assay (Mosmann, T. J. Immunol. Methods 65, p55 (1983).”, “ELISA assay (R&D” for “Immunoassay (Quantikine, R&D”

[2] = system: Human foreskin keratinocytes; assay: Keratinocyte proliferation analysis (DNA content per well, Pico Green); conditions: for DNA: 4 days, control (0 μM) 3.5
Experimental: Human foreskin keratinocytes (passage 3) were seeded at 4000 cells/well in 96 well plates in Keratinocyte Growth Medium (abbreviated to KGM) containing 0.03 mM calcium and grown for 3 days at 37° C. The cells were then treated with PPAR ligands in KGM containing 0.03 mM calcium for 4 days prior to harvest. Stock solutions of PPAR ligands were dissolved in dimethylsulphoxide (DMSO) and diluted in KGM before adding to the cells. […] The harvested cells were washed 3× in phosphate buffered saline (PBS) and extracted in 1% Triton X100, 50 mM (tris[hydroxymethyl]aminomethane) (Tris) pH 8.0 plus protease inhibitors pepstatin and leupeptin (100 μl/well). The extract was assayed for DNA content using the Pico Green DNA assay (Molecular Probes, Inc.).
Cultured keratinocytes were treated with cis-9-trans-11 conjugated linoleic acid (CT-CLA) for 4 days. The cells were extracted with Tris-1% Triton X100 and the DNA content per well was determine by the Pico Green assay in accordance with the above described procedure.

## CC\C=C/C=C/C=C/C=C\CCCCCCCC(=O)O [cis parinaric acid, cis-parinaric acid]
interleukin-6 (IL-6); 1-100 μM, Dunnet's test p<0.05
  AP-induced IL-6 release: significantly decrease
interleukin-6 (IL-6); Table 14: 1.0 μM (+ AP)
  IL-6 release (mean ± SD): 26.8
interleukin-6 (IL-6); Table 14: 10.0 μM (+ AP)
  IL-6 release (mean ± SD): 23.3
interleukin-6 (IL-6); Table 14: 100.0 μM (+ AP)
  IL-6 release (mean ± SD): 25.7
[1]
  Culture viability: not significantly different
[2]; Example 12: 10 and 20 μM, 1 way ANOVA, p<0.05
  keratinocyte DNA synthesis activity, statement: significantly reduce
[2]; Table 13: 1 μM
  DNA: 3.3 ng/well
[2]; Table 13: 5 μM
  DNA: 4.1 ng/well
[2]; Table 13: 10 μM
  DNA: 2.6 ng/well
[2]; Table 13: 20 μM
  DNA: 1.5 ng/well
